This is an account of results in patent US5449674A, “2-,3-,5-, and/or 8-substituted dibenzoxazepine compounds, pharmaceutical compositions and methods for treating pain” (G. D. Searle & Co., priority 1994, dated 1995).

Data set [1] relates to phenylbenzoquinone (PBQ)-induced writhing in mice. The data set is described as follows: Writhing Assay (PBQ-induced writhing, analgesic activity in mice). The data set is classed as in vivo, Charles River male albino mice. The note with it: for Writhing assay, number of mice out of nine or ten in which the test compound produced analgesia, I.G. / Writhing assay, number of mice out of nine or ten in which the test compound produced analgesia, S.C.: 30 mg/kg, PBQ i.p. 30 min later; for ED50: Mus musculus. An excerpt:
The Writhing Assay is one of the most widely-used experimental procedures for measuring the analgesic activity of different narcotic and nonnarcotic analgesic agents, and involves the continuous, chemically-induced pain of visceral origin to an animal, such as a mouse or rat. [Gyires et al., Arch. int. Pharmacodyn, 267, 131-140 (1984); C. Vander Wende et al., Fed. Proc., 15, 494 (1956); Koster et al., Fed. Proc., 18, 412 (1959); and Witken et al., J. Pharmacol. exp. Ther., 133, 400-408 (1961).]Chemicals which may be used to induce this pain include phenylbenzoquinone (PBQ) and acetic acid. As a result of the chemical irritation to the animal, a characteristic stretching and writhing of the animal (dorsiflexion of the animal's back, extension of its hindlimbs and the strong contraction of its abdominal musculature) will generally occur. […] Drugs which reduce the number of writhes of the animal appear to restore the normal nociceptive threshold of the animal.
Charles River male albino mice, weighing 20 to 30 grams, were used in this assay.
Thirty minutes after subcutaneous or intragastric administration to ten mice of 30 mg per kilogram of body weight of a compound of the present invention ("test compound"), […] per 10 g of body weight of a 0.025% w/v solution of PBQ was injected intraperitoneally into each mouse. Ten mice which were given saline in place of a test compound of the invention were used as a control group.
Five minutes later, each mouse was individually placed into a glass beaker for observation, and the number of writhes occurring during the following ten-minute period was counted.
A test compound was considered to have produced analgesia in a mouse if, in accordance with the conditions set forth above, and under the test criteria employed for this assay, after the administration of 30 mg per kilogram of body weight of a compound of the present invention to the mouse, the number of writhes elicited by a mouse injected with PBQ was equal to, or less than, one-half the median number of writhes recorded for the saline-treated control group of mice that day, as described by Taber in "Predictive Value of Analgesic Assays in Mice and Rats," Advances in Biochemical Psychopharmacology, 8, 191 (1974).
The results for the particular compounds of the present invention analyzed in this assay, and discussed in the examples identified below which correspond thereto, are presented in Table I hereinbelow as fractions under the heading "WRITHING ASSAY." The fractions indicate the number of mice, out of ten, in which the test compound produced analgesia.
The standard initial screening dose of a test compound employed in this assay was […] for both routes of administration. If this initial screening dose of the test compound produced analgesia in seven of ten mice, then the effect of additional doses of the test compound on the writhing response was evaluated, and then the ED50 dose was generally calculated. (The slopes of the dose-response curves for all test compounds analyzed were compared as described by Tallarida and Murray, Manual of Pharmacologic Calculations, Page 11 (Springer Verlag, New York, 1981)).
In general terms: In writhing tests, fewer writhes than in controls are read as antinociception.

The test system of data set [2] is prostaglandins, isolated smooth muscle preparations. To be noted: cited from earlier work.
The nature of data set [3]: water solubility. The format is physicochemical. The note with it: for solubility: water. The protocol: The title compound was determined to have a high water solubility (>80 mg/mL) by methods known by those of skill in the art.
The subject of data set [4] is micturition reflex. The note with it: urethane-anesthetized rats; cited from earlier work.
The target in data set [5] is T1, prostaglandin E2-induced contractions of segments of guinea pig ileum (Cavia porcellus, UniProt A0A286XHJ6).
T1 construct: Segments of ileum about 2 cm long were then cut and mounted in a 10 mL tissue bath; from tissue; host or cells: guinea pig ileum segments
T1 sequence (A0A286XHJ6 1-405): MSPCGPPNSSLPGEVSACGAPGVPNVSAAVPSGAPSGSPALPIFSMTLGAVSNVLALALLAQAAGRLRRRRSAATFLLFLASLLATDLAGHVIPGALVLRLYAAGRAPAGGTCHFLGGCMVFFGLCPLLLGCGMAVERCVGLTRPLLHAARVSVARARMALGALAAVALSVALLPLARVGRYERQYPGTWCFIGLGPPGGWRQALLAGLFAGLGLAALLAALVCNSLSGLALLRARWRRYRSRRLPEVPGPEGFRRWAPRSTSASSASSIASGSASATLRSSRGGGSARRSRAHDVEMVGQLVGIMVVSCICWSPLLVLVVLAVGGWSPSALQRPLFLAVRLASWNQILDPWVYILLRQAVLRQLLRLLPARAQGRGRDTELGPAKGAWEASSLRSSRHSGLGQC
The data set is described as follows: Prostaglandin (PGE) Antagonism Assay. The format is cell-based. The note with it: isolated ileum, 37° C., read-out: PGE in guinea pig ileum pA2 (converted). The protocol:
In order to determine the effectiveness of several of the compounds of the present invention ("test compounds") as prostaglandin E2 antagonists,a prostaglandin antagonism assay was conducted, as described below, to determine the ability of these compounds to inhibit prostaglandin E2 -induced contractions of segments of guinea pig ileum.
Male albino guinea pigs weighing 200 to 500 grams were sacrificed by cervical dislocation. The ilea were then quickly removed from the guinea pigs and placed in a modified Tyrode solution, a solution which is known to those skilled in the art, containing one-half of the usual amount of magnesium ions.
Segments of ileum about 2 cm long were then cut and mounted in a 10 mL tissue bath containing the modified Tyrode solution. The solution was maintained at 37° C. and aerated with a gaseous mixture of 95% oxygen and 5% carbon dioxide. Data for a control prostaglandin E2 dose response curve plotting concentration of prostaglandin E2 versus the intensity of contractions, detected isotonically, was then obtained by experimentally adjusting the dose of the prostaglandin E2 being injected into the tissue bath, in a manner known by those of skill in the art. […]
A dose ratio of EC50 doses was then calculated from the results of each test in a manner known by those of skill in the art. […]

Converted amounts (≈) assume the structure as drawn. Structures can show the parent of a compound that is named as a salt. Where two headings read alike, the source gives them in different places. Where only a bound is given, the exact number is not on record here.

For orientation: solubility means the dissolved amount per volume that the medium holds. A low value points to little dissolved substance. For orientation: ED50 means the dose that gives a 50% effect, or the effect in half of the subjects.

`COC(=O)/C=C/C(=O)N1Cc2ccccc2Oc2ccc(Cl)cc21` [Example 7, Methyl 4-(8-chloro-10,11-dihydrodibenz[b,f]-oxazepin-10-yl)-4-oxo-2E-butenoate]: in data set [1] (intragastric), the “Writhing assay, number of mice out of nine or ten in which the test compound produced analgesia, I.G.” value (“Writhing assay, number of mice out … I.G.” below) is 3/10. In data set [1] (subcutaneous), the “Writhing assay, number of mice out of nine or ten in which the test compound produced analgesia, S.C.” value (“Writhing assay, number of mice out … S.C.” for short) is listed as 6/9.
Take `O=C(Cc1ccccc1)NNC(=O)N1Cc2ccccc2Oc2ccc(Cl)cc21` [SC-18637]: the “inhibition of stimulant actions of prostaglandins (in words)” value in data set [2] is given as “inhibit the stimulant actions of prostaglandins on isolated smooth muscle preparations”.
As to `CN(C)CCNC(=O)CCC(=O)N1Cc2ccccc2Oc2ccc(Cl)cc21` [Example 10, 8-chloro-N-[2-(dimethylamino)ethyl]-γ-oxodibenz [b,f][1,4]oxazepine-10(11)-butanamide], in data set [1] (intragastric), the “Writhing assay, number of mice out … I.G.” value was 6/9.
`O=C(O)/C=C\C(=O)N1Cc2ccccc2Oc2ccc(Cl)cc21` [Example 2, 4-(8-chloro-10,11-dihydrodibenz[b,f]-oxazepin-10-yl)-4-oxo-2Z-butenoic acid]: in data set [1] (intragastric), the “Writhing assay, number of mice out … I.G.” value is listed as 1/10. Besides, in data set [1] (subcutaneous), the “Writhing assay, number of mice out … S.C.” value was 4/10.
Compound `CCS(=O)(=O)CCC(=O)NNC(=O)N1Cc2ccccc2Oc2ccc(Cl)cc21` [8-chlorodibenz[b,f][1,41oxazepine-10(11H)-carboxylic acid, 2-[3(ethylsulfonyl)-1-oxopropyl]hydrazide, reference compound] yielded a solubility in data set [3] (comparison compound) of 80 µg/mL (≈ 183 µM).
For `CCCCNC(=O)/C=C\C(=O)N1Cc2ccccc2Oc2ccc(Cl)cc21` [Example 5], the “Writhing assay, number of mice out … I.G.” value in data set [1] (intragastric) is 4/10. The “Writhing assay, number of mice out … S.C.” value in data set [1] (subcutaneous) is listed as 6/10.
In the case of `CC(=O)NNC(=O)N1Cc2ccccc2Oc2ccc(Cl)cc21` [SC-19220], the “inhibition of stimulant actions of prostaglandins (in words)” value in data set [2] is recorded as “inhibit the stimulant actions of prostaglandins on isolated smooth muscle preparations”. Further, in data set [4], the “bladder capacity (in words)” value was “increased the bladder capacity” and the “voiding efficiency of micturition (in words)” value is “reduced the voiding efficiency of micturition”.
Take `CCCCOC(=O)/C=C\C(=O)N1Cc2ccccc2Oc2ccc(Cl)cc21` [Example 3, Butyl 4-(8-chloro-10,1! -dihydrodibenz[b,f]-oxazepin-10-yl)-4-oxo-2Z-butenoate]: the “Writhing assay, number of mice out … I.G.” value in data set [1] (intragastric) is reported as 6/10. The “Writhing assay, number of mice out … S.C.” value in data set [1] (subcutaneous) was 4/10.
In the case of `CCCCOC(=O)/C=C/C(=O)N1Cc2ccccc2Oc2ccc(Cl)cc21` [Example 4, Butyl 4-(8-chloro-10,11-dihydrodibenz[b,f]-oxazepin-10-yl)-4-oxo-2E-butenoate], in data set [1] (intragastric), the “Writhing assay, number of mice out … I.G.” value is 6/10. In addition, the “Writhing assay, number of mice out … S.C.” value in data set [1] (subcutaneous) is 6/10.
For `O=C(CCC(=O)N1Cc2ccccc2Oc2ccc(Cl)cc21)NCc1ccncc1` [Example 9, 8-chloro-γ-oxo-N-(4-pyridinylmethyl)dibenz[b,f]-[1,4]oxazepine-10(11)-butanamide], the “Writhing assay, number of mice out … I.G.” value in data set [1] (intragastric) is 6/10. For the same compound, in data set [5], the Kb was 2400 nM.
Consider `CN(C)CCNC(=O)/C=C/C(=O)N1Cc2ccccc2Oc2ccc(Cl)cc21` [Example 8, 4-(8-chloro-10,11-dihydrodibenz[b,f]oxazepin-10-yl) -N-[2-(dimethylamino)ethyl]-4-oxo-2E-butenamide, monohydrochloride], for which the median effective dose (ED50) in data set [1] (po, intragastric, read-out: Writhing assay ED50 Dose, I.G.) amounted to 8.3 mg/kg. The median effective dose (ED50) in data set [1] (sc, subcutaneous, read-out: Writhing assay ED50 Dose, S.C.) was found to be 8.3 mg/kg. For the same compound, the “Writhing Assay potency ranking (in words)” value in data set [1] (among compounds tested) is given as “most potent compound of the invention tested in this assay”. The Kb in data set [5] is 1860 nM. In data set [3], the “water solubility (in words)” value is listed as “highly water soluble” and the solubility is more than 80000 µg/mL.
